Active and inactive are the calls of the source.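 How the source made its calls: active means EGFP signal decrease of at least 30% at 10 µM or well 3 SD below plate mean, unless failing retest; inactive means the rest, including hits failing retest or dose response.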
Biological target: p/CIP-EGFP fusion (nuclear receptor coactivator 3, mouse) (UniProt Q05BA5)
Experiment: p/CIP-EGFP fusion destabilizers, primary screen, fluorescence, F442A cells (AID 1984);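 further: dose response run in MEF cells carrying p/CIP-EGFP rather than F442A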
Details: 16 h

Chain of p/CIP-EGFP fusion (nuclear receptor coactivator 3, mouse) (Q05BA5 1-1403): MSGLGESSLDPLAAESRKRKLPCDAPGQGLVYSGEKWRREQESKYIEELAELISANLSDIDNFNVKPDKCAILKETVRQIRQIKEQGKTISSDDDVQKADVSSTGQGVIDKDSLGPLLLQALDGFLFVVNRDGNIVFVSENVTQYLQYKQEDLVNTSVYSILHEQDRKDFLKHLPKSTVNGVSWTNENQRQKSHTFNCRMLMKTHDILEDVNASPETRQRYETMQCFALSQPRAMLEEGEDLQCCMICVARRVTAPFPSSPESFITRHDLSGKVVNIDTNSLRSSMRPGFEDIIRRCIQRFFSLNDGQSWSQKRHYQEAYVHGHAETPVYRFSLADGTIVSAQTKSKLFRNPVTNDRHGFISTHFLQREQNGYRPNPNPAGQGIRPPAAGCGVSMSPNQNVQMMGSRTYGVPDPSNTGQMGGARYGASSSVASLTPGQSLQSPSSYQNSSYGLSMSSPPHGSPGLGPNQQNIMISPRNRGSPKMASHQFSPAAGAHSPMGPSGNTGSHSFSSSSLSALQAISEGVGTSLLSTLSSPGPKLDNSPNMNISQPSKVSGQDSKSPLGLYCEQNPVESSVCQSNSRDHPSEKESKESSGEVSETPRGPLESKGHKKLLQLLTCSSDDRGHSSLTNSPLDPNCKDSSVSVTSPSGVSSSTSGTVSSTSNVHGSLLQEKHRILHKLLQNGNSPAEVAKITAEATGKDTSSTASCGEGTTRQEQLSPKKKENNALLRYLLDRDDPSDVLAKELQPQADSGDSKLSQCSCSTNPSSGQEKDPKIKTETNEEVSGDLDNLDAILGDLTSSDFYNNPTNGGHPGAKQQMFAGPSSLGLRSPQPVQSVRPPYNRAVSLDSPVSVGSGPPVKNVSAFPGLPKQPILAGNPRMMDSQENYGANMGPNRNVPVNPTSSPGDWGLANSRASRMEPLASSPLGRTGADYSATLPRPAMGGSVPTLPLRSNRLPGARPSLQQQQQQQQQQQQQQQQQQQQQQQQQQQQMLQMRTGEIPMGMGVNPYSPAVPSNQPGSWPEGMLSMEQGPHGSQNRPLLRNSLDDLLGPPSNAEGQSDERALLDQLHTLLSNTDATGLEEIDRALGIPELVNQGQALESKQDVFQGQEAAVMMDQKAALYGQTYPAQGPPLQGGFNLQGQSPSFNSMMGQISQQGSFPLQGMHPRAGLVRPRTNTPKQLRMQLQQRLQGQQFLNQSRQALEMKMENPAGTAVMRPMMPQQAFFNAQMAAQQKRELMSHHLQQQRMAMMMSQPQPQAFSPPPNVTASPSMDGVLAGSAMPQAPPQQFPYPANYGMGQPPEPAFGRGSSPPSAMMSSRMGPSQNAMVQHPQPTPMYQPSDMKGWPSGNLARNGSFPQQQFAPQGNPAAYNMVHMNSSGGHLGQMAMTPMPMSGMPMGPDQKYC

SMILES	IC50
Cc1ccccc1NC1=C/C(=N\S(=O)(=O)c2cccs2)c2ccccc2C1=O	16.4 µM
CC(C)(C)c1cc[n+](C2=C([O-])c3ccccc3C(=O)/C2=N\S(=O)(=O)c2cccs2)cc1	27 µM
Cc1ccc(NC2=C/C(=N\S(=O)(=O)c3cccs3)c3ccccc3C2=O)c(C)c1	19.4 µM
COc1ccc(NC(=O)/C(Cl)=C(/Cl)S(=O)Cc2ccc(Cl)cc2)cn1 (centres undefined)	inactive
O=C1C(Cl)=C(NCCN2CCCCC2)C(=O)c2ccccc21	14.8 µM
COc1ccc(CS(=O)/C(Cl)=C(/Cl)C(=O)Nc2ccc(OC)nc2)cc1 (centres undefined)	16.6 µM
CCOC(=O)N=Nc1c2ccccc2c2nc3no[nH]c3nc12	18.8 µM

Now from value to compound:

IC50	SMILES
4.3 µM	Cc1oc2c(c1C(=O)NCc1cccnc1)C(=O)c1ccccc1C2=O
2.3 µM	CC1CCN(S(=O)(=O)c2ccc3c(c2)C(=NO)c2cc(S(=O)(=O)N4CCC(C)CC4)ccc2-3)CC1
14.6 µM	Nc1ccc2c(c1)C(=O)C(=O)c1ccccc1-2
3.43 µM	CCOC(=O)c1c(C)[nH]c2c1-c1ccccc1C(=O)C2=O
3.77 µM	O=C1C(Nc2ccccc2)=C/C(=N/S(=O)(=O)c2cccs2)c2ccccc21
5 µM	CCCc1nc2c(=O)n(C)c(=O)nc-2n(C)n1
2.69 µM	O=C1C(Nc2ccc(O)cc2)=C/C(=N/S(=O)(=O)c2cccs2)c2ccccc21
